Assay results taken from patent publication US11332472B2, “Substituted piperidines as inhibitors of ubiquitin specific protease 7” (LES LABORATOIRES SERVIER, priority 2017, dated 2022).

These molecules were tested against T1, USP7 (Homo sapiens, UniProt Q93009, C315A) (assay: Inhibition of USP7 by Fluorescence Intensity (FLINT) readings, Ubiquitin-Rhodamine-110 substrate). Conditions: 0.25 nM His-His-USP7 (aa208-560, [C315A]); compound 60 minutes at 30° C.; 500 nM Ubiquitin-Rhodamine substrate; 11-point curves.
T1 construct: 0.25 nM His-His-USP7 (aa208-560, [C315A]) was incubated with compound; His-His (N)
Format: biochemical
Description: USP7 activity was measured using Rhodamine-110 c-terminal labelled Ubiquitin as a substrate (Viva Biosciences). Incubation with USP7 results in the release of Rhodamine-110 leading to an increase in fluorescence which can be used in the continuous measurement of USP7 activity.
The USP7 reactions were performed in a 50 μL volume, in 384 well black solid low binding plates (Corning #3575). The reaction buffer consisted of 100 mM Bicine pH 8.0, 0.01% TritonX 100, 1 mM TCEP, and 10% DMSO.
0.25 nM His-His-USP7 (aa208-560, [C315A]) was incubated with compound (final concentration 10% DMSO) for 60 minutes at 30° C. The reaction was then initiated by the addition of 500 nM Ubiquitin-Rhodamine-10 substrate and the plate read every 3 minutes for 21 minutes to measure the release of Rhodamine-110. Fluorescence Intensity (FLINT) readings were measured using a Biomek Neo plate reader (Ex. 485 nm. Em. 535 nm).
The inhibition of increasing doses of compound was expressed as a percentage reduction in kinetic rate compared to the kinetic rates established between ‘DMSO only’ and ‘total inhibition’ controls (no USP7). The inhibitory concentrations that gave a 50% reduction in kinetic rate (IC50) were determined, from 11-point dose response curves, in XL-Fit using a 4-Parameter Logistic Model (Sigmoidal Dose-Response Model).

T1 sequence (Q93009 208-560 C315A): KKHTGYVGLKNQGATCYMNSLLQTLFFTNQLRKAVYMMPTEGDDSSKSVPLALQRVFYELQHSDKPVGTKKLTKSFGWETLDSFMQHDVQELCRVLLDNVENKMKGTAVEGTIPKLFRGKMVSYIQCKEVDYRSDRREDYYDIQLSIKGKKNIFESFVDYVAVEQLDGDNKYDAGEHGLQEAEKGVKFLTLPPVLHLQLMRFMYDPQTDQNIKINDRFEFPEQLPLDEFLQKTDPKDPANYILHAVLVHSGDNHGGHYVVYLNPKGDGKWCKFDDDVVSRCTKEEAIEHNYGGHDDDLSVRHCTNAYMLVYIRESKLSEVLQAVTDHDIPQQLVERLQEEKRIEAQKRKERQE

IC50 [nM]	SMILES
4580	O=C([C@@H]1CCCC[C@H]1c1ccoc1)N1CCC(O)(Cn2cnc3cccnc3c2=O)CC1 (relative stereo) [Example 4, 3-[[1-[trans-2-(3-furyl)cyclohexanecarbonyl]-4-hydroxy-4-piperidyl]methyl]pyrido[3,2-d]pyrimidin-4-one]
76300	CCn1cc([C@@H]2CC(F)(F)CC[C@H]2C(=O)N2CCC(O)(Cn3cnc4c(-c5ccccc5)scc4c3=O)CC2)cn1 (single isomer, unassigned) [Example 81, 3-[[1-[trans-2-(1-ethylpyrazol-4-yl)-4,4-difluoro-cyclohexanecarbonyl]-4-hydroxy-4-piperidyl]methyl]-7-phenyl-thieno[3,4-d]pyrimidin-4-one]
1590	O=C(C1CCCCC1c1ccc(F)cc1)N1CCC(O)(Cn2cnc3c(ccn3-c3ccccc3)c2=O)CC1 (single isomer, unassigned) [Example 42, 3-[[1-[(trans-2-(4-fluorophenyl)cyclohexanecarbonyl]-4-hydroxy-4-piperidyl]methyl]-7-phenyl-pyrrolo[2,3-d]pyrimidin-4-one]
20300	Cn1ccnc1[C@@H]1CCCC[C@H]1C(=O)N1CCC(O)(Cn2cnc3c(ccn3-c3ccccc3)c2=O)CC1 (single isomer, unassigned) [Example 58, 3-[[4-hydroxy-1-[trans-2-(1-methylimidazol-2-yl)cyclohexanecarbonyl]-4-piperidyl]methyl]-7-phenyl-pyrrolo[2,3-d]pyrimidin-4-one]
100	O=C(CC1CCCO1)Nc1ccc2ncn(CC3(O)CCN(C(=O)[C@@H]4CCCC[C@H]4c4ccccc4)CC3)c(=O)c2n1 (relative stereo) [Example 106, N-[3-[[4-hydroxy-1-(trans-2-phenylcyclohexanecarbonyl)-4-piperidyl]methyl]-4-oxo-pyrido[3,2-d]pyrimidin-6-yl]-2-tetrahydrofuran-2-yl-acetamide]
10100	O=C([C@@H]1CCCC(F)(F)[C@H]1c1ccccc1)N1CCC(O)(Cn2cnc3c(ccn3-c3ccccc3)c2=O)CC1 (relative stereo) [Example 51, 3-[[1-[trans-3,3-difluo-2-phenyl-cyclohexanecarbonyl]-4-hydroxy-4-piperidyl]methyl]-7-phenyl-pyrrolo[2,3-d]pyrimidin-4-one]
413	COc1ccc(-n2ccc3c(=O)n(CC4(O)CCN(C(=O)[C@@H]5CCCC[C@H]5n5ccnc5)CC4)cnc32)cc1 (single isomer, unassigned) [Example 48, 3-[[4-hydroxy-1-[trans-2-imidazol-1-ylcyclohexanecarbonyl]-4-piperidyl]methyl]-7-(4-methoxyphenyl)pyrrolo[2,3-d]pyrimidin-4-one]
682	COc1ccc(-n2ccc3c(=O)n(CC4(O)CCN(C(=O)[C@@H]5C(C)=CCC[C@H]5c5ccsc5)CC4)cnc32)cc1 (single isomer, unassigned) [Example 62, 3-[[4-hydroxy-1-[trans-2-methyl-6-(3-thienyl)cyclohex-2-ene-1-carbonyl]-4-piperidyl]methyl]-7-(4-methoxyphenyl)pyrrolo[2,3-d]pyrimidin-4-one]
99.6	O=C(Nc1ccc2ncn(CC3(O)CCN(C(=O)[C@@H]4CCCC[C@H]4c4ccccc4)CC3)c(=O)c2n1)C1CCOC1 (relative stereo) [Example 101, N-[3-[[4-hydroxy-1-(trans-2-phenylcyclohexanecarbonyl)-4-piperidyl]methyl]-4-oxo-pyrido[3,2-d]pyrimidin-6-yl]tetrahydrofuran-3-carboxamide]
4640	COc1ccc(-n2ccc3c(=O)n(CC4(O)CCN(C(=O)[C@@H]5CCC(=O)N(C)[C@H]5c5ccccc5)CC4)cnc32)cc1 (single isomer, unassigned) [Example 118, 3-{[4-hydroxy-1-(trans-1-methyl-6-oxo-2-phenylpiperidine-3-carbonyl)piperidin-4-yl]methyl}-7-(4-methoxyphenyl)-3,7-dihydro-4H-pyrrolo[2,3-d]pyrimidin-4-one]
67	O=C([C@@H]1CCCO[C@H]1c1ccccc1)N1CCC(O)(Cn2cnc3c(ccn3-c3ccccc3)c2=O)CC1 (single isomer, unassigned) [Example 26, 3-[[4-hydroxy-1-[trans-2-phenyltetrahydropyran-3-carbonyl]-4-piperidyl]methyl]-7-phenyl-pyrrolo[2,3-d]pyrimidin-4-one]
2970	COc1ccc(-n2ccc3c(=O)n(CC4(O)CCN(C(=O)[C@@H]5CCCC[C@H]5n5cccc5)CC4)cnc32)cc1 (single isomer, unassigned) [Example 16, 3-[[4-hydroxy-1-[trans-2-pyrrol-1-ylcyclohexanecarbonyl]-4-piperidyl]methyl]-7-(4-methoxyphenyl)pyrrolo[2,3-d]pyrimidin-4-one]
86	COc1ccc(-n2ccc3c(=O)n(CC4(O)CCN(C(=O)[C@@H]5CCCO[C@H]5c5ccccc5)CC4)cnc32)cc1 (single isomer, unassigned) [Example 45, 3-[[4-hydroxy-1-[trans-2-phenyltetrahydropyran-3-carbonyl]-4-piperidyl]methyl]-7-(4-methoxyphenyl)pyrrolo[2,3-d]pyrimidin-4-one]
11100	O=C([C@@H]1CCCC[C@H]1n1cccc1)N1CCC(O)(Cn2cnc3c(ccn3-c3ccccc3)c2=O)CC1 (single isomer, unassigned) [Example 13, 3-[[4-hydroxy-1-[trans-2-pyrrol-1-ylcyclohexanecarbonyl]-4-piperidyl]methyl]-7-phenyl-pyrrolo[2,3-d]pyrimidin-4-one]
60.1	O=C([C@@H]1CC(F)(F)CC[C@H]1c1ccccc1)N1CCC(O)(Cn2cnc3c(-c4ccccc4)scc3c2=O)CC1 (single isomer, unassigned) [Example 79, 3-[[1-[trans-5,5-difluoro-2-phenyl-cyclohexanecarbonyl]-4-hydroxy-4-piperidyl]methyl]-7-phenyl-thieno[3,4-d]pyrimidin-4-one]
171	O=C([C@@H]1CCCC[C@H]1c1ccccc1)N1CCC(O)(Cn2cnc3cccnc3c2=O)CC1 (relative stereo) [Example 93, 3-[[4-hydroxy-1-(trans-2-phenylcyclohexanecarbonyl)-4-piperidyl]methyl]pyrido[3,2-d]pyrimidin-4-one]
10100	O=C([C@@H]1CCC(F)(F)C[C@H]1c1cscn1)N1CCC(O)(Cn2cnc3c(-c4ccccc4)scc3c2=O)CC1 (single isomer, unassigned) [Example 82, 3-[[1-[trans-4,4-difluoro-2-thiazol-4-yl-cyclohexanecarbonyl]-4-hydroxy-4-piperidyl]methyl]-7-phenyl-thieno[3,4-d]pyrimidin-4-one]
15.3	O=C(Cc1c[nH]c2ccc(O)cc12)Nc1ccc2ncn(CC3(O)CCN(C(=O)C4CCCCC4c4ccccc4)CC3)c(=O)c2n1 (stereo not drawn) [Example 105, 2-(5-hydroxy-1H-idol-3-yl)-N-[3-[[4-hydroxy-1-(trans-2-phenylcyclohexanecarbonyl)-4-piperidyl]methyl]-4-oxo-pyrido[3,2-d]pyrimidin-6-yl]acetamide]
76.5	NC(=O)CSCCC(=O)Nc1ccc2ncn(CC3(O)CCN(C(=O)[C@@H]4CCCC[C@H]4c4ccccc4)CC3)c(=O)c2n1 (relative stereo) [Example 108, 3-(2-amino-2-oxo-ethyl)sulfanyl-N-[3-[[4-hydroxy-1-(trans-2-phenylcyclohexanecarbonyl)-4-piperidyl]methyl]-4-oxo-pyrido[3,2-d]pyrimidin-6-yl]propanamide]
